Source: publication PMC11939955, “Enhancing Antimicrobial Peptides from Frog Skin: A Rational Approach” (Biomolecules, 2025)
Values joined by “and” are separate entries in the source; they are usually repeats but may differ in a detail not shown here. Equal values may be shown once. Where no end group is shown, it is not given here.

Legend:
[1] = system: Acinetobacter baumannii (ATCC 13304); format: cell-based
Protocol: (§1) Hylin-Pul3 and six derivatives (dHP3-31, dHP3-50, dHP3-50.137, dHP3-50.190, dHP3-84, and dHP3-84.39) were tested against two Gram-positive bacteria, Staphylococcus aureus (ATCC 25923) and Streptococcus mutans (ATCC 25175), as well as three Gram-negative bacteria: Escherichia coli (ATCC 25922), Klebsiella pneumoniae (ATCC 13883), and Acinetobacter baumannii (ATCC 13304). The minimal inhibitory concentration (MIC) was determined using the microbroth dilution.
(§2) The peptides were serially diluted in concentrations ranging 128 to 0.25 μM, with gentamicin serving as a positive control, which was serially diluted to concentrations of 20 to 0.04 μM. Bacterial cultures were prepared in Mueller–Hinton (MH) medium to achieve a final inoculum concentration of 5 × 10^5 CFU/mL. […] All tests were performed in duplicate and repeated across three independent experiments.

[2] = system: Escherichia coli (ATCC 25922); format: cell-based
Protocol: as §1, §2

[3] = system: Klebsiella pneumoniae (ATCC 13883); format: cell-based; details: ATCC 13883
Protocol: as §1, §2

[4] = system: Staphylococcus aureus (ATCC 25923); format: cell-based
Protocol: as §1, §2

[5] = system: Streptococcus mutans (ATCC 25175); format: cell-based
Protocol: as §1, §2

[6] = system: Human primary fibroblasts; format: cell-based; details: MTT, 24 h
Protocol: Human primary fibroblasts were kindly provided by CellSeq Solutions (Belo Horizonte, Brazil) and cultured in DMEM (Dulbecco’s Modified Eagle’s Medium, Gibco, Waltham, MA, USA) supplemented with 10% (v/v) fetal bovine serum (FBS; Gibco, Waltham, MA, USA) and a 1000 U/mL penicillin/streptomycin solution (Gibco, Waltham, MA, USA). The cells were maintained at 5% CO2, 37 °C, and 95% humidity.
To investigate the impact of the antimicrobial peptides hylin-Pul3, dHP3-31, dHP3-50, dHP3-50.137, dHP3-50.190, dHP3-84, and dHP3-84.39 on primary human fibroblast proliferation and viability, the 3-(4,5-dimethylthiazol-2-yl)-2,5-diphenyl tetrazolium bromide (MTT) metabolization assay (Sigma Aldrich; Misuri, USA) was performed. Human fibroblast cells (7 × 10^3 cells/well) were plated in a 96-well plate and treated with 0.5, 1, 5, 10, 25, 50, and 100 μg/mL of each peptide for 24 h. After this period, the cells were incubated with 5 mg/mL MTT for 4 h. The formazan crystals formed were solubilized by adding dimethyl sulfoxide (DMSO). The absorbance was measured at 570 nm using a spectrophotometer (Multiskan™ FC Microplate Photometer; Thermo Fisher Scientific, Waltham, MA, USA).

[7] = Carboxyfluorescein (CF) release from LUVs; parameters: species or system E. coli; details: at the lowest peptide concentrations (8, 32, 50, 64 μM tested); 10 min, ex 490 nm/em 517 nm, duplicate
Protocol: Large unilamellar vesicles (LUVs) were prepared with the total lipid extract of E. coli (Avanti Polar Lipids). For this, an aliquot of 1 mg of lipids dissolved in chloroform was deposited into a glass tube and dried by evaporation with nitrogen (N2). The glass tube underwent vacuum treatment to eliminate any residual solvent traces. The lipids were then hydrated in 200 μL of a 5,6-carboxyfluorescein (CF) solution (Sigma-Aldrich) at a concentration of 49 mM, pH 8, and 431 mOsm/kgH2O through nine cycles of heating (70 °C for 30 s), vortexing (1 min), and freezing (ice bath for 30 s). A polycarbonate filter with a pore size of 100 nm was employed to standardize the liposome size. Twenty-one extrusion cycles were conducted at 40 °C through the filter, resulting in LUVs with an average diameter of 100 nm. Size exclusion chromatography (Sephadex G-25) was utilized to remove the CF outside of the LUVs.
The fluorescence spectra of the CF-filled LUVs were measured using a FluoroMax3 Jobin Yvon spectrofluorometer (Horiba Jobin Yvon; Edison, NJ, USA). A 200 μL aliquot of the LUVs containing 100 μM CF was utilized for the experiment. Excitation was performed over a wavelength range of 400 to 540 nm, with the emission recorded at 517 nm. The peptides were added at various final concentrations (8, 32, 50, and 64 μM), and the fluorescence was assessed 10 min after each addition. […]

E. coli (ATCC 25922) = experiment: Synergistic checkerboard assay; format: cell-based, Escherichia coli
Protocol: Briefly, working solutions of the peptides were prepared and serially diluted by half across the rows and columns of a microplate, ensuring that each well contained a unique combination of peptide concentrations. The starting concentrations corresponded to the respective MIC values of each peptide, followed by two-fold serial dilutions.
Each well was filled with 50 µL of the peptide solution (individual or combined) and 50 µL of a bacterial suspension (1 × 10^6 CFU/mL), resulting in a final bacterial concentration of 5 × 10^5 CFU/mL. The individual peptide solutions served as positive controls, while the MH medium was employed as a negative control. The microplates were incubated at 37 °C overnight. The test was performed in three independent experiments. The fractional inhibitory concentrations index (ΣFIC) was calculated using the following equation: (1) ∑FIC =MIC(A) in combination/MIC(A) alone+MIC(B) in combination /MIC(B) alone
The FIC index (ΣFIC) was interpreted as follows: ΣFIC ≤ 0.5 indicated synergy; 0.5 < ΣFIC ≤ 4 indicated no effect; and 4 < ΣFIC indicated antagonism.

[8] = DPPH radical-scavenging activity; details: peptides 0.1, 0.05, 0.025 mg/mL, 30 min dark 25 °C, absorbance 515 nm, triplicate
Protocol: A stock solution of 60 µM 1,1-diphenyl-2-picrylhydrazyl (DPPH) was prepared in ethanol, with its absorbance adjusted to 0.7 at 515 nm immediately before the assay using a Shimadzu 1240 UV–visible spectrophotometer (Kyoto, Japan). The peptides were dissolved in PBS, and 20 µL aliquots of each peptide solution were incubated with 180 µL of the ethanolic DPPH solution in triplicate, at final concentrations of 0.1, 0.05, and 0.025 mg/mL. For the negative control, 20 µL of PBS was mixed with 180 µL of the DPPH solution, while 20 µL of Trolox (6-hydroxy-2,5,7,8-tetramethylchroman-2-carboxylic acid) served as the positive control and standard. The mixtures were incubated in the dark at 25 °C for 30 min, after which, the absorbance was measured at 515 nm. The reduction in absorbance, indicative of DPPH-scavenging activity, was compared to a standard curve. The results were expressed as milligrams of Trolox equivalents per milligram of peptide (mg Trolox equivalents/mg of peptide).

ABTS assay = details: peptides 0.05, 0.025, 0.0125 mg/mL, 1 h dark, absorbance 734 nm, triplicate
Protocol: The 2,2-azinobis-3-ethylbenzothiazoline-6-sulfonic acid (ABTS^+) free radical-scavenging activity was determined following the method in [38]. The ABTS⁺ radical cation was generated by diluting a 245 mM ammonium persulfate (APS) solution at a ratio of 1:100 with a 7 mM ABTS solution, followed by overnight incubation in the dark at room temperature. The ABTS^+ solution was then diluted with water to obtain an absorbance of 0.70 at 734 nm immediately before the assay using a Shimadzu 1240 UV-visible spectrophotometer (Kyoto, Japan). The peptides were dissolved in PBS, and 10 µL aliquots of each peptide solution were incubated with 190 µL of the ABTS^+ solution in triplicate, at final concentrations of 0.05, 0.025, and 0.0125 mg/mL. After a 1 h incubation in the dark, the absorbance was measured at 734 nm. The radical-scavenging activity was quantified against a standard curve, with the results expressed as milligrams of Trolox equivalents per milligram of peptide.

[9] = versus parent peptide hylin-Pul3

Row | Substance | Antimicrobial Activity (MIC) A. baumannii ATCC 13304 [1] [µM] | Antimicrobial Activity (MIC) E. coli ATCC 25922 [2] [µM] | Antimicrobial Activity (MIC) K. pneumoniae ATCC 13883 [3] [µM] | Antimicrobial Activity (MIC) S. aureus ATCC 25923 [4] [µM] | Antimicrobial Activity (MIC) S. mutans ATCC 25175 [5] [µM] | Concentration at which fibroblast viability increased (proliferative effect) [6] | CF release from LUVs [7] [%] | Reduction in MIC against A. baumannii compared to hylin-Pul3 [1, 9] [fold] | Reduction in MIC of up to (Gram-negative strains) compared to hylin-Pul3 ([2]; strain not given, largest reduction) | Reduction in MIC against E. coli compared to hylin-Pul3 [2, 9] [fold] | Synergistic Activity, FIC Index (ΣFIC) (E. coli (ATCC 25922); combination of dHP3-84 and dHP3-50.137, E. coli ATCC 25922, 5 × 10^5 CFU/mL, 37 °C overnight, three independent experiments, ΣFIC ≤ 0.5 = synergy) | Improvement of combined activity compared to each peptide individually (E. coli (ATCC 25922); dHP3-84 + dHP3-50.137, E. coli) [fold] | Antioxidant activity DPPH [8] | Antioxidant activity ABTS (ABTS assay) [mg Trolox/mg]
1 | RRGKLIPRLAKAIGRLIRK-OH [dHP3-84.39] | 16.0 ± 0.0 | 6.6 ± 4.8 | 64.0 ± 0.0 | 26.6 ± 8.3 | >64 | 5 μg/mL and 2.3 µM | 50 |  |  |  |  |  |  | 
2 | RAGALWPAIRGAIKKIIKK-NH2 [dHP3-50.137] | 8.0 ± 0.0 | 4.0 ± 0.0 | 53.3 ± 16.5 | 64.0 ± 0.0 | 32.0 ± 0.0 |  | 50 | 4 | up to 8 fold | 4 | 0.5 | 2 | did not reveal significant activity | 0.08
